Our source for the IC50 values is patent US20220169646A1, “HETEROCYCLIC COMPOUNDS AND USES THEREOF” (Nuvation Bio Inc., priority 2019, published 2022).

In one test the target is T1, WEE1 kinase enzyme (Homo sapiens, UniProt P30291).
T1 construct: purchased Invitrogen, Life Technologies PR7373A
Nature of the test: WEE1 IC50 determination, LanthaScreen Terbium Labeled TR-FRET kinase assay. It is filed as biochemical. The conditions noted are these: WEE1 enzyme 1 nM, ATP 10 μM, 1 h. How it is done:
IC50 values of compounds against WEE1 kinase enzyme were determined by LanthaScreen™ Terbium Labeled TR-FRET assay. Kinase assays were performed in 1× kinase buffer (#PV6135, Invitrogen, Life Technologies Grand Island, N.Y.) where total reaction volume was 10 μL in low-volume 384-well plates (#4511, Corning). Serially diluted compounds (3-fold) were incubated with WEE1 Enzyme (1 nM) (#PR7373A, Invitrogen, Life Technologies, Grand Island, N.Y.) for 10 min, and a mixture of ATP (10 μM) (#A1852, Sigma, St. Louis, Mo.) and fluorescent-PolyGT substrate (200 nM) (#PV3610, Invitrogen, Life Technologies, Grand Island, N.Y.) was added and incubated in the dark at room temperature for 1 h. After 1 h, a 10 μL stop solution containing terbium labeled antibody (4 nM) (#PV3529, Invitrogen, Life Technologies Grand Island, N.Y.) and EDTA (#E5134, Sigma, St. Louis, Mo.) (20 mM) in TR-FRET dilution buffer (#PV3574, Invitrogen, Life Technologies, Grand Island, N.Y.) was added. Readings were taken in a Synergy Neo Plate reader (BioTek, Winooski, Vt.) at single excitation of 340 nm and dual emission at 495 nm and 520 nm respectively.
The % activity of test samples was calculated as (Sample−Min)*100/(Max−Min). [Max: DMSO control, complete reaction with enzyme & DMSO and Min: No enzyme & DMSO]. Percent inhibition (100−% activity) was fitted to the “four-parameter logistic model” in XLfit for determination of IC50 values.

Another test deals with A427 cells. Nature of the test: Cytotoxicity assay in A427 cell line (resazurin). Format: cell-based. The conditions noted are these: Homo sapiens, A-427, A427 lung epithelial cell line, 72 hr incubation, inhibition of proliferation. As for the experimental part: A427 (HTB-53; ATCC), a lung epithelial cell line, was seeded in medium (MEM, 41090101; Gibco) at a cell count of 1500 cells per 100 μL per well in a 96 well edge plate (167425; ThermoFisher). Cells were allowed to grow at 37° C. for 24 hr in 5% CO2 environment (culture conditions) in a Nuaire incubator (humidified). Serially diluted test compounds (100 μL) within the desired testing concentration ranges were added to the culture plate and the cells were further incubated in culture conditions for 72 hr. The experiment was terminated at the designated incubation time by replacing the medium with 100 μL of 1 mM of resazurin (R7017; Sigma) prepared in culture medium, and the plates were further incubated in culture conditions for 4-6 hr. Fluorescence was recorded using a multimodal plate reader (Biotek Synergy Neo) at an excitation wavelength of 535 nm and emission wavelength of 590 nm to obtain relative fluorescence units. Data were analysed as follows: the background fluorescence (blank containing only medium) value was subtracted from each reading and normalized with the vehicle control (DMSO treated cells) to obtain percent survival/proliferation. Percent survival was subtracted from 100 to get the percent inhibition of proliferation which was used to calculate IC50 values. Potency of compounds in other cell lines (such as A549, As-Pc-1, Panc 10.05, A172, U-87 MG) may be determined in an analogous manner.
(In general: Resazurin is reduced to fluorescent resorufin, in cell work by metabolically active cells.)

For test [1], the system named is phospho-CDC2 (Tyr15) in A427 cells. Nature of the test: Phospho-CDC2 (Tyr15) sandwich ELISA in A427 cells. It is filed as cell-based. The conditions noted are these: Homo sapiens, A-427, PathScan Phospho-CDC2 (Tyr15) ELISA, specified time (e.g., 24 hr). As for the experimental part: Changes in the levels of phospho-CDC2 following treatment of cells with test compounds were assessed by enzyme-linked immunosorbent assay (ELISA). A427 cells were plated in 6-well plates and cultured for 24 hr to approximately 80-90% confluency. Medium was replaced, and the cells were treated with the vehicle control or the test compound at several different concentrations. After incubation of treated cells in cell culture conditions for a specified time (e.g., 24 hr), cells were rinsed with ice-cold PBS and lysed in 1× cell lysis buffer containing protease inhibitors and phosphatase inhibitors. The cells were scraped from the plate with a cell scraper after a brief incubation on ice and transferred to a centrifuge tube, and then subjected to three freeze-thaw cycles in liquid nitrogen and a 37° C. water bath for further lysis. The lysates were centrifuged to pellet cell debris (using, for example, a 10 min centrifugation of 2000×g at 4° C.) and the supernatants transferred to fresh tubes on ice. The protein concentrations of the samples were estimated by the Bradford method or equivalent. The ELISA was carried out with the PathScan® Phospho-CDC2 (Tyr15) Sandwich ELISA Kit (Cat. #7176, Cell Signaling Technology, Danvers, Mass.) according to the manufacturer's instructions.

SMILES strings stand for the structures. Some results are limits rather than exact numbers.

T1 sequence (P30291 whole entry): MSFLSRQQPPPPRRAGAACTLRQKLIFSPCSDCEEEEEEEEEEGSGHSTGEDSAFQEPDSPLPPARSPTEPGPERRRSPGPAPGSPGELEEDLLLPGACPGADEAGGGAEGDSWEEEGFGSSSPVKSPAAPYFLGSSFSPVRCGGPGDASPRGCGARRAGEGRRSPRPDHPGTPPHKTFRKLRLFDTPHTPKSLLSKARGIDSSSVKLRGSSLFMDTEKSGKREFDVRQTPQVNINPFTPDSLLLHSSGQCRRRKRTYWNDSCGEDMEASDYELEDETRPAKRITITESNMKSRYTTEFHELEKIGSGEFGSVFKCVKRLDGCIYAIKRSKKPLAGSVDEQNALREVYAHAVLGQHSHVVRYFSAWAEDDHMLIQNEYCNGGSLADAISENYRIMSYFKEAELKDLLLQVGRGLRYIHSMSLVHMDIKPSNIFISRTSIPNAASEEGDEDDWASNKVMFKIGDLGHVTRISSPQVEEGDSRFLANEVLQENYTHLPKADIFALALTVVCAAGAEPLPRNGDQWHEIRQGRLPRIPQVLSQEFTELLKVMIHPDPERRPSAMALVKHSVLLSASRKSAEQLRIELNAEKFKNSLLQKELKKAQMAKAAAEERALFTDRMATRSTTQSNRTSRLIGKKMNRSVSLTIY

For the compound `CC(C)n1c(=O)c2cnc(Nc3ccc4c(c3)CCNC4)nc2n1-c1cccc(C(=O)N(C)C)c1` [Compound 1.3, 3-(2-isopropyl-3-oxo-6-((1,2,3,4-tetrahydroisoquinolin-6-yl)amino)-2,3-dihydro-1H-pyrazolo[3,4-d]pyrimidin-1-yl)-N,N-dimethylbenzamide], the IC50 (commonly the concentration that inhibits the measured activity by half) at WEE1 kinase enzyme was 2 nM; in the test with A427 cells it was 8160 nM.
On the same counts, the results for `CC(C)n1cc(-n2c3nc(Nc4ccc5c(c4)CCNC5)ncc3c(=O)n2C(C)C)cn1` [Compound 1.1, 2-isopropyl-1-(1-isopropyl-1H-pyrazol-4-yl)-6-((1,2,3,4-tetrahydroisoquinolin-6-yl)amino)-1,2-dihydro-3H-pyrazolo[3,4-d]pyrimidin-3-one] are 107 nM and greater than 30000 nM.
Take `CC(C)n1c(=O)c2cnc(Nc3ccc4c(c3)CNCC4)nc2n1-c1ccc(C#N)cc1` [Compound 1.85, 4-(2-isopropyl-3-oxo-6-(1,2,3,4-tetrahydroisoquinolin-7-ylamino)-2,3-dihydro-1H-pyrazolo[3,4-d]pyrimidin-1-yl)benzonitrile]: the IC50 was 5 nM at WEE1 kinase enzyme, 1860 nM with A427 cells and 278 nM in test [1].
Turning to `CC(C)n1c(=O)c2cnc(Nc3ccc4c(c3)CCNC4)nc2n1-c1ccc(C#N)cc1` [Compound 1.86, 4-(2-isopropyl-3-oxo-6-(1,2,3,4-tetrahydroisoquinolin-6-ylamino)-2,3-dihydro-1H-pyrazolo[3,4-d]pyrimidin-1-yl)benzonitrile], the IC50 on WEE1 kinase enzyme was 8 nM; in the test on A427 cells, 1070 nM.
On the same counts, the results for `CC(C)n1c(=O)c2cnc(Nc3ccc4c(c3)CNCC4)nc2n1-c1cccc(C(=O)N(C)C)c1` [Compound 1.4, 3-(2-isopropyl-3-oxo-6-((1,2,3,4-tetrahydroisoquinolin-7-yl)amino)-2,3-dihydro-1H-pyrazolo[3,4-d]pyrimidin-1-yl)-N,N-dimethylbenzamide] are 3 nM and 3510 nM.
On to `CC(C)n1c(=O)c2cnc(Nc3ccc4c(c3)CCN(CCCN)C4)nc2n1-c1ccnc(C(C)(C)C)c1` [Compound 1.87, 2,2,2-trifluoroacetaldehyde compound with 6-((2-(3-aminopropyl)-1,2,3,4-tetrahydroisoquinolin-6-yl)amino)-1-(2-(tert-butyl)pyridin-4-yl)-2-isopropyl-1,2-dihydro-3H-pyrazolo[3,4-d]pyrimidin-3-one], for which the IC50 at WEE1 kinase enzyme amounted to 4 nM.
Take `COCC(C)(C)c1cccc(-n2c3nc(Nc4ccc5c(c4)CNCC5)ncc3c(=O)n2C(C)C)n1` [Compound 1.2, 2-isopropyl-1-(6-(1-methoxy-2-methylpropan-2-yl)pyridin-2-yl)-6-((1,2,3,4-tetrahydroisoquinolin-7-yl)amino)-1,2-dihydro-3H-pyrazolo[3,4-d]pyrimidin-3-one]: the half-inhibitory concentration (IC50) turned out to be 4 nM on WEE1 kinase enzyme and 295 nM in the test on A427 cells.
Take `CC(C)N1CCc2cc(Nc3ncc4c(=O)n(C(C)C)n(-c5ccnc(C(C)(C)C)c5)c4n3)ccc2C1` [Compound 1.5, 1-(2-(tert-butyl)pyridin-4-yl)-2-isopropyl-6-((2-isopropyl-1,2,3,4-tetrahydroisoquinolin-6-yl)amino)-1,2-dihydro-3H-pyrazolo[3,4-d]pyrimidin-3-one]: the concentration for half-maximal inhibition (IC50) at WEE1 kinase enzyme amounted to 21 nM; in the test with A427 cells, 2070 nM.
